# What was measured:
# Format in all cases: in vivo
# [1] = system: green peach aphid (Myzus persicae); test: Enhancement of activity by ammonium/phosphonium salts, Myzus persicae test; settings: Myzus persicae on bell pepper, active compound 4 ppm
# Protocol: (§1) To produce a suitable preparation of active compound, 1 part by weight of active compound is mixed with the stated amounts of solvent and emulsifier, and the concentrate is diluted with water to the desired concentration. For application with ammonium or phosphonium salts, these are added to the spray liquor in a concentration of 1000 ppm.
# (§2) Bell pepper plants (Capsicum annuum) which are heavily infested by the green peach aphid (Myzus persicae) are treated by spraying to runoff point with the active compound preparation of the desired concentration. After the desired period of time, the kill in % is determined. 100% means that all animals have been killed; 0% means that none of the animals have been killed.
# crop plants = test: Use of safeners: plant compatibility of test substances in crop plants
# Protocol: • Seeds of monocotyledonous and dicotyledonous weed and crop plants are placed in sandy loam in wood fiber pots, covered with soil and cultivated in a greenhouse under good growth conditions. 2 to 3 weeks after sowing, the test plants are treated at the one-leaf stage. The test compounds, formulated as wettable powders (WP) are then, with a water application rate of 600 l/ha (converted), with 0.2% of wetting agent added, sprayed at various dosages onto the green parts of the plants. After the test plants have been kept in the greenhouse under optimum growth conditions for about 3 weeks, the activity of the preparations is rated visually in comparison to untreated controls (herbicidal activity in percent: 100% activity=the plants have died, 0% activity=like control plants). • In addition to the compounds mentioned above, the following compounds show a post-emergence action of ≧80% against Echinocloa crus-galli, Lolium multiflorum and Setaria viridis at 80 g/ha: I-1-a-2, I-1-a-4, I-1-a-5, I-1-a-7, I-1-a-9, I-1-a-12, I-1-a-13, I-1-a-14, I-1-b-3.
# Use of Safeners: • If it is additionally to be tested as to whether safeners can improve the plant compatibility of test substances in the case of crop plants, the following options are used for applying the safeners: • seeds of the crop plants are, before sowing, dressed with the safener substance (the amount of safener stated in percent, based on the weight of the seed) • before application of the test substances, the crop plants are sprayed with the safener at a certain application rate per hectare (usually 1 day before the application of the test substances) • the safener is applied together with the test substance as a tank mix (the amount of safener stated in g/ha or as a ratio, based on the herbicide).
# • Application of the safener 1 day prior to the herbicide
# [2] = system: cotton aphid (Aphis gossypii); test: Enhancement of activity by ammonium/phosphonium salts, Aphis gossypii test; settings: Aphis gossypii on cotton, active compound 4 ppm
# Protocol: as §1, with “diluted with emulsifier-containing water to” for “diluted with water to”
# Cotton plants (Gossypium hirsutum) which are heavily infested by the cotton aphid (Aphis gossypii) are treated by spraying to runoff point with the active compound preparation of the desired concentration.
# After the desired period of time, the kill in % is determined. 100% means that all the aphids have been killed; 0% means that none of the aphids have been killed.
# [3] = system: green peach aphid (Myzus persicae); test: Enhancement of activity by ammonium/phosphonium salts in combination with penetrants, Myzus persicae test
# Protocol: as §1, with “salts and penetrants (rapeseed oil methyl ester 500 EW)” for “salts,”, “in each case in” for “in”
# as §2
compound,measurement,setting,value
Cc1cc(C)c(C2=C(O)C3(CCC(OCC(F)(F)F)CC3)NC2=O)c(C)c1 (mixture of isomers) [Example I-1-a-5],Kill rate/% after 6 days,[1]; +AS (1000 ppm),99%
same,Kill rate/% after 6 days,[1]; without AS,5%
"CCc1cc(C)cc(Br)c1C1=C(O)C2(CCC(OCC(F)(F)F)CC2)NC1=O (single isomer, unassigned) [Example I-1-a-7]",10 days after application Summer wheat observed (%),crop plants; 12.5 g a.i./ha,40%
same,28 days after application Summer wheat observed (%),crop plants; 12.5 g a.i./ha,10%
same,10 days after application Summer wheat observed (%),crop plants; 25 g a.i./ha,50%
same,28 days after application Summer wheat observed (%),crop plants; 25 g a.i./ha,20%
same,10 days after application Summer wheat observed (%),crop plants; 50 g a.i./ha,60%
same,28 days after application Summer wheat observed (%),crop plants; 50 g a.i./ha,30%
same,10 days after application Summer wheat observed (%),crop plants; 100 g a.i./ha,60%
same,28 days after application Summer wheat observed (%),crop plants; 100 g a.i./ha,40%
Cc1cc(Cl)cc(C)c1C1=C(O)[C@]2(CC[C@H](OCC(F)(F)F)CC2)NC1=O [Example I-1-a-1],Kill rate/% after 6 days,[2]; +AS (1000 ppm),95%
same,Kill rate/% after 6 days,[2]; without AS,25%
same,Kill rate/% after 6 days,"[3]; 0.8 ppm, +AS (1000 ppm)",0%
same,Kill rate/% after 6 days,"[3]; 0.8 ppm, +RME (1000 ppm)",0%
same,Kill rate/% after 6 days,"[3]; 0.8 ppm, +RME + AS (1000 ppm each)",95%
same,Kill rate/% after 6 days,"[3]; 0.8 ppm, no additive",0%
same,Kill rate/% after 6 days,"[3]; 4 ppm, +AS (1000 ppm)",90%
same,Kill rate/% after 6 days,"[3]; 4 ppm, +RME (1000 ppm)",99%
same,Kill rate/% after 6 days,"[3]; 4 ppm, +RME + AS (1000 ppm each)",100%
same,Kill rate/% after 6 days,"[3]; 4 ppm, no additive",95%
